Results on one compound are retold here after patent US20030003071A1, “Hair growth stimulant” (priority 2000, published 2003).

The subject of assay [1] is cultured human hair follicle epithelial cells. Description: Cell proliferation test using cultured human hair follicle epithelial cells (alamar blue). In kind it is cell-based. The conditions noted are these: object substance concentration 1.0×10^−5% in KBM medium, 2 days culture, negative control 0, positive control (insulin + hydrocortisone) 1. On the procedure: <Cell Proliferation Tests Using Cultured Hair Follicle Epithelial Cells>
A. Human Hair Follicle Epithelial Cells
1. Collection of Human Hair Follicle Epithelial Cells
Hair follicles in the growth period of the hair cycle were collected mechanically under a stereoscopic microscope from male human scalp skin obtained as a by-product from surgery.
The growth period hair follicles were treated for 30 minutes at 37° C. with Dulbecco's modified MEM (DMEM) containing 1000 U/ml dispase and 0.2% collagenase, and the dermal sheath, dermal papilla and hair bulb epithelial tissue were removed using the tip of an injection needle, and then treatment was carried out for 5 minutes at 37° C. with a phosphate buffer solution (PBS(−); ‘(−)’ means not containing calcium ions, magnesium ions etc.) containing 0.05% trypsin and 0.02% EDTA. […]
Next, the cells were suspended in the above-mentioned serum-free medium, sowing was carried out in a collagen-coated (type I) culture dish at a density of 5000 cells/cm^2, medium exchange was carried out every 2 days until the cells became subconfluent, and then treatment was again carried out for 5 minutes at 37° C. with 0.05 wt % trypsin and 0.02% EDTA, the reaction was then stopped with an equivalent of 0.1% trypsin inhibitor, and centrifuging (800×g, 5 minutes) was carried out. […] The number of cells was calculated using a haemacyto meter. […]
Background: Alamar Blue is a resazurin reagent that responds to reducing activity.

Assay [2] relates to cultured rat hair follicle epithelial cells. Description: Cell proliferation test using cultured rat hair follicle epithelial cells (alamar blue). In kind it is cell-based. The conditions noted are these: object substance concentration 1.0×10^−5% in KBM medium, 2 days culture, negative control 0, positive control (insulin + hydrocortisone) 1. From the text: B. Rat Hair Follicle Epithelial Cells
1. Collection of Rat Hair Follicle Epithelial Cells
(1) Collection of Hair Follicles
Dorsal skin was collected from newborn (3˜4-day-old) rats, and this collected dorsal skin was soaked two pieces at a time in PBS (−) containing 1% PSF.
Lower parts such as subcutaneous fat and membranes were then removed from the dermal fat layer using dissecting scissors.
Next, the dorsal skin was again soaked in PBS (−) containing 1% PSF, and was then soaked overnight at 4° C. in PBS (−) containing 0.25% trypsin (also containing 0.02% EDTA; likewise hereinafter). […]
A cell freezing liquid (Cellbanker; made by DAIYATRON) was added to the hair follicle epithelial cells, the concentration was adjusted to 1.5×10^7 cells/ml, 1.5×10^7 cells were put into each freezing tube, and storage was carried out by freezing. The number of cells was calculated using a haemacyto meter. […]

For assay [3], the system named is immortalized outer hair root sheath cells. Description: Immortalized outer hair root sheath cell proliferation test (cellular DNA, Hoechst 33258). The assay is classed as cell-based, human. The conditions noted are these: 10 nM, 1 μM, 100 μM or 10 mM in KBM; 4 days culture; negative control = 100. On the procedure: <Immortalized Outer Hair Root Sheath Cell Proliferation Tests>
[Culturing of Immortalized Outer Hair Root Sheath Cells]
Hair follicles were isolated from human scalp skin using scissors under a stereoscopic microscope. The hair follicles were cut off at the lower part of the sebaceous gland, and enzyme treatment was carried out with collagenase and dispase.
The hair bulb was cut off with scissors and excluded, and the hair shaft was separated with tweezers.
The hair shaft was subjected to enzyme treatment with trypsin, and then the reaction was stopped with trypsin inhibitor.
Centrifuging was carried out, the supernatant was thrown away, and the outer hair root sheath cells were recovered. […]
First generation cultured outer hair root sheath cells cultured until the cloning confluence of the cells was about 50% were washed with K-SFM, and then infection was carried out by adding the above-mentioned virus in a quantity of 1, 10 or 30 MOI (multiplicity of infection). […]
The cells were thawed, and were then added to each […], and smashed up with sonication. The cells were then transferred into a cuvette, and the fluorescence intensity was measured at an excitation wavelength of 356 nm and a fluorescence wavelength of 460 nm.

For the compound `CNCCS(=O)(=O)O` [N-methyltaurine], the “Cell proliferation effect (cell proliferation index)” value in assay [1] worked out at 0.64; in assay [2], 0.62. Moreover, the “Immortalized outer hair root sheath cell activation action (extent of cell proliferation, relative DNA amount, FIG. 1)” value in assay [3] is recorded as “has an immortalized outer hair root sheath cell activation action”.
